Experimental findings from US7057052B2, “Heterocyclic quinones as pharmaceutical agents” (Duke University, priority 2002, dated 2006) are described below.

What all share (format): biochemical
Assay [1] addresses T1, Cdc25A (Homo sapiens, UniProt P30304).
T1 sequence (P30304 1-524): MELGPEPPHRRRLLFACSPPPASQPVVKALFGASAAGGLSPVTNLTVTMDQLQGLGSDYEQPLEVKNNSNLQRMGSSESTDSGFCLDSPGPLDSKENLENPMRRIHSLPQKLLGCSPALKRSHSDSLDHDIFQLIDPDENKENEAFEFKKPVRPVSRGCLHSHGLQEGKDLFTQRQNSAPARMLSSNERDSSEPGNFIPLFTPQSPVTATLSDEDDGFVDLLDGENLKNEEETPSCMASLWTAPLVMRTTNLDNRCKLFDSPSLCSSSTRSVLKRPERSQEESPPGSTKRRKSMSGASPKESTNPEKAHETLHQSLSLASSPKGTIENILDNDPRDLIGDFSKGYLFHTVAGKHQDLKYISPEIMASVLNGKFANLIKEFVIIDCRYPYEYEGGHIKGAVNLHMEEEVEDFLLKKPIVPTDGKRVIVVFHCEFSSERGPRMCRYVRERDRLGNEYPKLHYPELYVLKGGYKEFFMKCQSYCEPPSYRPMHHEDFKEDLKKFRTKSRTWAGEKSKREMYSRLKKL
Nature of the assay: Cdc25A phosphatase inhibition screen at 50 μM. Conditions: read-out: Percent Inhibition at 50 uM compound, Cdc25 A. Here is the method:
(§1) Using procedures known to those skilled in the art, the compounds listed in Table 3 were screened against Cdc25A, Cdc25B, and Cdc25C at 50 μM. […] To analyze these effects further, the compounds were then screened against Cdc25B in a 3 pt. IC-50, using 1, 7 and 50 μM. Several of the compounds were also screened with an 8 pt. IC-50 process, using 0.1–10 μM, allowing determination of Hill slopes.

Assay [2] has as its target T2, Cdc25B (Homo sapiens, UniProt P30305).
T2 sequence (P30305 1-580): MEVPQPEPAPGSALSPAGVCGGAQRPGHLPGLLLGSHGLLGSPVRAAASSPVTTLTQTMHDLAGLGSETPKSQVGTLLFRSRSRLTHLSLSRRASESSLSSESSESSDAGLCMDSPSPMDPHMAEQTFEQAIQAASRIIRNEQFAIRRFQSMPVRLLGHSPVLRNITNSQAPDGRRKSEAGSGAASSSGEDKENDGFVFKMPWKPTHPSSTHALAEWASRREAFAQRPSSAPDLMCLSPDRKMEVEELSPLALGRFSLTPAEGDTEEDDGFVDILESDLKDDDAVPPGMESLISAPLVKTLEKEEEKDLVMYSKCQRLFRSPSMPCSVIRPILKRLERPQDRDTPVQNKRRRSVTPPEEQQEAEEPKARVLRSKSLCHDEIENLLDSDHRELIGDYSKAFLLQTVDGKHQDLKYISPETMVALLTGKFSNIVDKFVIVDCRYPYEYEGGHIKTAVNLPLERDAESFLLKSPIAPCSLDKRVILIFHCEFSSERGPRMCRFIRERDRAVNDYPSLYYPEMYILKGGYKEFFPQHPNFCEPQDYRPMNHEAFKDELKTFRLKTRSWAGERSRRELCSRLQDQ
Nature of the assay: Cdc25B phosphatase inhibition (50 μM screen, 3 pt. and 8 pt. IC-50). The following applies: for IC50: Cdc25B; for inhibition at 50 µM: read-out: Percent Inhibition at 50 uM compound, Cdc25 B. Here is the method: as §1

The target of assay [3] is T3, Cdc25C (Homo sapiens, UniProt P30307).
T3 sequence (P30307 1-473): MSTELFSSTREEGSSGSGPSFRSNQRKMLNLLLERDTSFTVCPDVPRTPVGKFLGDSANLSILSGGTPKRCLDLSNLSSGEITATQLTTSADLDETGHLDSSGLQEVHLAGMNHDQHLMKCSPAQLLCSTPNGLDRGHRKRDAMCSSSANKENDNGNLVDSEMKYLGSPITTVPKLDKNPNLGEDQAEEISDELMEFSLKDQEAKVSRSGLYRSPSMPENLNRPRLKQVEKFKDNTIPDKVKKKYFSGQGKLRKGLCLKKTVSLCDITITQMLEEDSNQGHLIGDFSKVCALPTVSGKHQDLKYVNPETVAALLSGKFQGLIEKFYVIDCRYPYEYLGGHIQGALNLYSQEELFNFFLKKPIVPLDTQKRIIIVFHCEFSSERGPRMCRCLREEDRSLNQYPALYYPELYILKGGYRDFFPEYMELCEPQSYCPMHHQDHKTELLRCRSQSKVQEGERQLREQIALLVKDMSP
In words: Cdc25C phosphatase inhibition screen at 50 μM. The following applies: read-out: Percent Inhibition at 50 uM compound, Cdc25 C. Here is the method:
as §1

Where [4] appears, read: 3 pt. IC-50 using 1, 7 and 50 μM, read-out: IC50 (3 pt).
[5] abbreviates: 8 pt. IC-50 using 0.1–10 μM, read-out: IC50 (8 pt).

Read-outs that look alike come from different tables or passages of the source.

On to `COC1=CC(=O)C(OC)=C(c2c[nH]c3c(F)cccc23)C1=O` [5E, 2,5-dimethoxy-3-(7-fluoro-1H-indol-3-yl)-[1,4]-benzoquinone], for which the inhibition – broadly, the relative decrease from the control value, in per cent – at 50 µM in assay [1] amounted to 29%; in assay [2] it was 67%; in assay [3] it was 68%. In assay [2] (setting [4]), the half-maximal inhibitory concentration (IC50) (usually the midpoint of a concentration-inhibition curve) came out at 125000 nM.
On the same counts, the results for `O=C1C=C(O)C(=O)C(c2c[nH]c3c(Cl)cccc23)=C1O` [5F, 2,5-dihydroxy-3-(7-chloro-1H-indol-3-yl)-[1,4]-benzoquinone] are 92%, 23%, 54% and 38000 nM.
On the same counts, the results for `O=C1C=C(O)C(=O)C(c2c[nH]c3c(Br)cccc23)=C1O` [5G, 2,5-dihydroxy-3-(7-bromo-1H-indol-3-yl)-[1,4]-benzoquinone] are 93%, 45%, 88% and 2100 nM.
On the same counts, the results for `Cc1cccc2c(C3=C(O)C(=O)C=C(O)C3=O)c[nH]c12` [5H, 2,5-dihydroxy-3-(7-methyl-1H-indol-3-yl)-[1,4]-benzoquinone] are 60%, 0%, 1% and 4200 nM.
For `CCCc1cccc2c(C3=C(O)C(=O)C=C(O)C3=O)c[nH]c12` [6A, 2,5-dihydroxy-3-(7-propyl-1H-indol-3-yl)-[1,4]-benzoquinone], the inhibition at 50 µM in assay [1] was 93%; in assay [2], 23%; in assay [3], 79%. Moreover, the concentration for half-maximal inhibition (IC50) in assay [2] (setting [4]) worked out at 14100 nM.
On the same counts, the results for `CC(C)=CCc1cccc2c(C3=C(O)C(=O)C=C(O)C3=O)c[nH]c12` [6B, 2,5-dihydroxy-3-(7-prenyl-1H-indol-3-yl)-[1,4]-benzoquinone] are 100%, 99%, 84% and 2100 nM.
As for `CC(C)=CCC/C(C)=C/Cc1cccc2c(C3=C(O)C(=O)C=C(O)C3=O)c[nH]c12` [6C, 2,5-dihydroxy-3-(7-geranyl-1H-indol-3-yl)-[1,4]-benzoquinone], the inhibition at 50 µM was found to be 99% in assay [1], 95% in assay [2] and 96% in assay [3]. In addition, the IC50 in assay [2] (setting [4]) worked out at 100 nM; in assay [2] (setting [5]) it was 500 nM.
On the same counts, the results for `CC(C)=CCCC(C)=CCCC(C)=CCc1cccc2c(C3=C(O)C(=O)C=C(O)C3=O)c[nH]c12` [6D, 2,5-dihydroxy-3-(7-farnecyl-1H-indol-3-yl)-[1,4]-benzoquinone] are 86%, 89%, 85%, 100 nM and 500 nM.
Take `O=C1C=C(O)C(=O)C(c2c[nH]c3c(Cc4ccccc4)cccc23)=C1O` [6E, 2,5-dihydroxy-3-(7-benzyl-1H-indol-3-yl)-[1,4]-benzoquinone]: the inhibition at 50 µM in assay [1] worked out at 98%; in assay [2] it was 97%; in assay [3], 98%. Moreover, in assay [2] (setting [4]), the IC50 was 1700 nM.
Take `Cc1ccccc1Cc1cccc2c(C3=C(O)C(=O)C=C(O)C3=O)c[nH]c12` [6F, 2,5-dihydroxy-3-[7-(2-methyl-benzyl)-1H-indol-3-yl]-[1,4]-benzoquinone]: the inhibition at 50 µM in assay [1] is 90%; in assay [2], 97%; in assay [3], 94%. Besides, the half-inhibitory concentration (IC50) is 600 nM in assay [2] (setting [4]) and 1100 nM in assay [2] (setting [5]).
Consider `CC(C)(C)c1cccc2c(C3=C(O)C(=O)C=C(O)C3=O)c[nH]c12` [6G, 2,5-dihydroxy-3-(7-tert-butyl-1H-indol-3-yl)-[1,4]-benzoquinone], for which the inhibition at 50 µM in assay [1] amounted to 96%; in assay [2], 33%; in assay [3], 37%. Besides, the concentration for half-maximal inhibition (IC50) in assay [2] (setting [4]) was 2100 nM.
On the same counts, the results for `O=C1C=C(O)C(=O)C(c2c[nH]c3c(-c4ccccc4)cccc23)=C1O` [6H, 2,5-dihydroxy-3-(7-phenyl-1H-indol-3-yl)-[1,4]-benzoquinone] are 98%, 92%, 91% and 1400 nM.
On the same counts, the results for `COc1cccc2c(C3=C(O)C(=O)C=C(O)C3=O)c[nH]c12` [7A, 2,5-dihydroxy-3-(7-methoxy-1H-indol-3-yl)-[1,4]-benzoquinone] are 36%, 15%, 13% and 79500 nM.
With `O=C1C=C(O)C(=O)C(c2c[nH]c3c(OCc4ccccc4)cccc23)=C1O` [7B, 2,5-dihydroxy-3-(7-benzyloxy-1H-indol-3-yl)-[1,4]-benzoquinone], the inhibition at 50 µM in assay [1] was found to be 98%; in assay [2], 97%; in assay [3] it was 85%. In addition, the IC50 in assay [2] (setting [4]) turned out to be 1600 nM.
On the same counts, the results for `Cc1ccc2[nH]c(C)c(C3=C(O)C(=O)C=C(O)C3=O)c2c1` [7C, 2,5-dihydroxy-3-(2,5-dimethyl-1H-indol-3-yl)-[1,4]-benzoquinone] are 61%, 20%, 25% and 16500 nM.
On the same counts, the results for `COc1ccc2[nH]c(C)c(C3=C(O)C(=O)C=C(O)C3=O)c2c1` [7D, 2,5-dihydroxy-3-(2-methyl-5-methoxy-1H-indol-3-yl)-[1,4]-benzoquinone] are 0%, 0%, 31% and 126000 nM.
On the same counts, the results for `Cc1[nH]c2ccc(Cl)cc2c1C1=C(O)C(=O)C=C(O)C1=O` [7E, 2,5-dihydroxy-3-(2-methyl-5-chloro-1H-indol-3-yl)-[1,4]-benzoquinone] are 91%, 60%, 81% and 52200 nM.
Take `Cc1ccc2c(C3=C(O)C(=O)C=C(O)C3=O)c(C)[nH]c2c1` [7F, 2,5-dihydroxy-3-(2,6-dimethyl-1H-indol-3-yl)-[1,4]-benzoquinone]: the inhibition at 50 µM was 46% in assay [1], 16% in assay [2] and 0% in assay [3]. The IC50 in assay [2] (setting [4]) stood at 207000 nM.
On the same counts, the results for `Cc1[nH]c2c(C)cccc2c1C1=C(O)C(=O)C=C(O)C1=O` [7G, 2,5-dihydroxy-3-(2,7-dimethyl-1H-indol-3-yl)-[1,4]-benzoquinone] are 20%, 0%, 0% and 38500 nM.
Regarding `O=C1C=C(O)C(=O)C(c2c[nH]c3cc4c(cc23)OCO4)=C1O` [7H, 2,5-dihydroxy-3-(5,6-methylenedioxy-1H-indol-3-yl)-[1,4]-benzoquinone], the inhibition at 50 µM was found to be 96% in assay [1], 88% in assay [2] and 63% in assay [3]. For the same compound, in assay [2] (setting [4]), the half-inhibitory concentration (IC50) was determined as 3700 nM.
